Assay results published in US11173145B2, “Compounds useful as inhibitors of indoleamine 2,3-dioxygenase and/or tryptophan dioxygenase” (Board of Regents, The University of Texas System, priority 2017, dated 2021).

Target: T1, IDO1 (Homo sapiens, UniProt P14902)
T1 construct: endogenous in cells; host or cells: HeLa cells (ATCC), IFNgamma-induced
Experiment: IDO1 cell-based assay (HeLa cells, IFNgamma-induced, N-formylkynurenine/L-tryptophan by RFMS)
Conditions: 10 ng/mL IFNgamma, 24 hours
Experimental: HeLa cells were obtained from the American Type Culture Collection (ATCC) and maintained in DMEM media containing 10% FBS. Cells (7,000/well) were seeded onto a 384 well plate in 50 μL of media and incubated at 37° C., 5% CO2 overnight. Cell media was aspirated, fresh media containing 10 ng/mL IFNgamma was added, and cells were incubated in absence or presence of various concentrations of test compound (final 0.5% DMSO) for 24 hours. Aliquots of the cell conditioned media were removed from the cell plate, and mixed with an equal volume of 200 mM ZnSO4 to precipitate media containing proteins. Two volumes of acetonitrile were added, mixed, and samples were then centrifuged at 2250G for 20 minutes at 4° C. Aliquots of the supernatant were diluted 1:10 in 0.1% formic acid containing 3 μM of deuterated Tryptophan as an internal standard.
Samples were analyzed via RFMS to quantify N-Formyl Kynurenine (AUC) and L-tryptophan (AUC). A C18 cartridge was used with mobile phases of 0.1% Formic Acid and 80% ACN/0.1% Formic Acid under isocratic conditions. Dose-response curves were analyzed using IC50 regression curve fitting (GeneData Screener). […] Cell viability was also assessed using the Cell Titer Glo Kit (Promega) following manufacturer recommendation.

T1 sequence (P14902 whole entry): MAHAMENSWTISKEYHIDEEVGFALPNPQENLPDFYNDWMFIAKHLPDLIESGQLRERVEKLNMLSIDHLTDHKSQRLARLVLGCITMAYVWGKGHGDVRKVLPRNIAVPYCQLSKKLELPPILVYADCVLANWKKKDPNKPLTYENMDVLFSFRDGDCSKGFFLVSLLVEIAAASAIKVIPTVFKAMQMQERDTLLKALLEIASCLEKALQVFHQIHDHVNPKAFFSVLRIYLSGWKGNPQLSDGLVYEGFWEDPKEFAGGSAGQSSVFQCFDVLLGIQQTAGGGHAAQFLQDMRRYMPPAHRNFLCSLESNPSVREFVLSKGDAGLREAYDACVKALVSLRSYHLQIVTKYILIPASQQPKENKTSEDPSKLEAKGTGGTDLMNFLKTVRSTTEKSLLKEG

| SMILES | IC50 [nM] |
| --- | --- |
| CC[C@@H](NC(=O)c1ccc(Cl)cc1)[C@H]1[C@@H]2C[C@@H](n3cc(C(C)(C)O)nn3)C[C@@H]21 [Compound 142, 4-chloro-N-((S)-1-((1R,3R,5S,6r)-3-(4-(2-hydroxypropan-2-yl)-1H-1,2,3-triazol-1-yl)bicyclo[3.1.0]hexan-6-yl)propyl)benzamide] | > 5000 |
| Clc1ccc(-c2nnc(C3C4CC(Oc5ccnc6ccccc56)CC43)o2)cc1 (stereo not drawn) [Compound 11, 2-(4-chlorophenyl)-5-(3-(quinolin-4-yloxy)bicyclo[3.1.0]hexan-6-yl)-1,3,4-oxadiazole] | > 5000 |
| CCC(NC(=O)c1ccc(C#N)cn1)C1C2CC(Oc3cnnc4ccccc34)CC21 [Compound 82, N-(1-((1R,3s,5S,6r)-3-(cinnolin-4-yloxy)bicyclo[3.1.0]hexan-6-yl)propyl)-5-cyanopicolinamide] | 200 to 2000 |
| CCC(NC(=O)c1ccc(Cl)cc1)[C@H]1[C@@H]2C[C@@H](n3cc(C(C)(C)O)nn3)C[C@@H]21 (stereo partly drawn) [Compound 141, 4-chloro-N-((R)-1-((1R,3S,5S,6r)-3-(4-(2-hydroxypropan-2-yl)-1H-1,2,3-triazol-1-yl)bicyclo[3.1.0]hexan-6-yl)propyl)benzamide] | 200 to 2000 |
| CC(NC(=O)c1ccc(C#N)cc1)C1[C@H]2CC(Oc3ncnc4ccc(F)cc34)C[C@@H]12 (stereo partly drawn) [Compound 107, 4-cyano-N-(1-((1R,3s,5S,6r)-3-((6-fluoroquinazolin-4-yl)oxy)bicyclo[3.1.0]hexan-6-yl)ethyl)benzamide] | < 200 |
| O=C(NC[C@H]1[C@H]2C[C@H](Oc3cc(C(F)(F)F)nc4ccc(F)cc34)C[C@@H]12)c1ccc(Cl)cc1 [Compound 24, 4-chloro-N-(((1R,3s,5S,6s)-3-((6-fluoro-2-(trifluoromethyl)quinolin-4-yl)oxy)bicyclo[3.1.0]hexan-6-yl)methyl)benzamide] | 200 to 2000 |
| CCC(NC(=O)c1ccc(Cl)cc1)[C@H]1[C@@H]2C[C@@H](n3cnnc3C3CC3)C[C@@H]21 (stereo partly drawn) [Compound 172, 4-chloro-N-(1-((1R,3s, 5S, 6r)-3-(3-cyclopropyl-4H-1,2,4-triazol-4-yl)bicyclo[3.1.0]hexan-6-yl)propyl)benzamide] | 200 to 2000 |
| CCC(NC(=O)c1ccc(Cl)cc1)[C@H]1[C@@H]2C[C@@H](n3cc(CO)nn3)C[C@@H]21 (stereo partly drawn) [Compound 146, 4-chloro-N-(1-((1R,3s,5S,6r)-3-(4-(hydroxymethyl)-1H-1,2,3-triazol-1-yl)bicyclo[3.1.0]hexan-6-yl)propyl)benzamide] | 200 to 2000 |
| Cc1ccc(C(=O)NC[C@@H]2[C@H]3C[C@H](n4cnc5cc(F)c(F)cc54)C[C@@H]23)cn1 [Compound 317, N-(((1R,3s,5S,6r)-3-(5,6-difluoro-1H-benzo[d]imidazol-1-yl)bicyclo[3.1.0]hexan-6-yl)methyl)-6-methylnicotinamide] | 200 to 2000 |
| CC[C@@H](NC(=O)c1ccc(Cl)cc1)[C@H]1[C@@H]2C[C@@H](C(CO)CO)C[C@@H]21 [Compound 291, 4-chloro-N—((R)-1-((1R,3S,5S,6r)-3-(1,3-dihydroxypropan-2-yl)bicyclo[3.1.0]hexan-6-yl)propyl)benzamide] | 200 to 2000 |
| CN(C(=O)Cc1ccc(Cl)cc1)[C@H]1[C@@H]2C[C@@H](Oc3cnnc4ccccc34)C[C@@H]21 [Compound 86, 2-(4-chlorophenyl)-N-((1R,3s,5S,6r)-3-(cinnolin-4-yloxy)bicyclo[3.1.0]hexan-6-yl)-N-methylacetamide] | 2000 to 5000 |
| CCC(NC(=O)c1ccc(C#N)cc1)[C@H]1[C@@H]2C[C@@H](n3cnc4ccc(F)cc4c3=O)C[C@@H]21 (stereo partly drawn) [Compound 67, 4-cyano-N-(1-((1R,3s,5S,6r)-3-(6-fluoro-4-oxoquinazolin-3(4H)-yl)bicyclo[3.1.0]hexan-6-yl)propyl)benzamide] | < 200 |
| C[C@@H](NC(=O)c1ccc(C#N)cc1)[C@H]1[C@@H]2C[C@@H](c3ccnc4ccc(F)cc34)C[C@@H]21 [Compound 278, 4-cyano-N-((R)-1-((1R,3S,5S,6r)-3-(6-fluoroquinolin-4-yl)bicyclo[3.1.0]hexan-6-yl)ethyl)benzamide] | < 200 |

The remaining lines, values ahead:

| IC50 [nM] | SMILES |
| --- | --- |
| < 200 | CCC(NC(=O)c1ccc(Cl)cc1)[C@H]1[C@@H]2C[C@@H](NC(=O)c3ccncn3)C[C@@H]21 (stereo partly drawn) [Compound 149, N-((1R,3s,5S,6r)-6-(1-(4-chlorobenzamido)propyl)bicyclo[3.1.0]hexan-3-yl)pyrimidine-4-carboxamide] |
| < 200 | CCC(NC(=O)c1ccc(C#N)cc1)[C@H]1[C@@H]2C[C@@H](Oc3ncnc4ccc(F)cc34)C[C@@H]21 (stereo partly drawn) [Compound 66, 4-cyano-N-(1-((1R,3s,5S,6r)-3-((6-fluoroquinazolin-4-yl)oxy)bicyclo[3.1.0]hexan-6-yl)propyl)benzamide] |
| < 200 | CCC(NC(=O)c1ccc(Cl)cc1)[C@H]1[C@@H]2C[C@@H](N3C(=O)C(F)(F)c4ccccc43)C[C@@H]21 (stereo partly drawn) [Compound 119, 4-chloro-N-(1-((1R,3s,5S,6r)-3-(3,3-difluoro-2-oxoindolin-1-yl)bicyclo[3.1.0]hexan-6-yl)propyl)benzamide] |
| < 200 | CC(NC(=O)c1ccc(Cl)cc1)[C@H]1[C@@H]2C[C@@H](Oc3ncnc4ccc(F)cc34)C[C@@H]21 (stereo partly drawn) [Compound 13, 4-chloro-N-(1-((1R,3s,5S,6r)-3-((6-fluoroquinazolin-4-yl)oxy)bicyclo[3.1.0]hexan-6-yl)ethyl)benzamide] |
| < 200 | CCC(NC(=O)c1ccc(Cl)cc1)[C@H]1[C@@H]2C[C@@H](Oc3cccc4cccnc34)C[C@@H]21 (stereo partly drawn) [Compound 43, 4-chloro-N-(1-((1R,3s,5S,6r)-3-(quinolin-8-yloxy)bicyclo[3.1.0]hexan-6-yl)propyl)benzamide] |
| < 200 | CCC(NC(=O)c1ccc(Cl)cc1)[C@H]1[C@@H]2C[C@H](Oc3ccc4nccc(Cl)c4c3)C[C@@H]21 (stereo partly drawn) [Compound 127, 4-chloro-N-(1-((1R,3r,5S,6r)-3-((4-chloroquinolin-6-yl)oxy)bicyclo[3.1.0]hexan-6-yl)propyl)benzamide] |
| < 200 | CCC(NC(=O)c1ccc(Cl)cc1)C1C2CC(Oc3ncnc4cccc(F)c34)CC21 [Compound 37, 4-chloro-N-(1-((1R,3s,5S,6r)-3-((5-fluoroquinazolin-4-yl)oxy)bicyclo[3.1.0]hexan-6-yl)propyl)benzamide] |
| < 200 | CC[C@@H](NC(=O)c1ccc(Cl)cc1)[C@H]1[C@@H]2C[C@@H](n3cc(C(F)(F)F)cn3)C[C@@H]21 [Compound 332, 4-chloro-N-((R)-1-((1R,3S,5S,6r)-3-(4-(trifluoromethyl)-1H-pyrazol-1-yl)bicyclo[3.1.0]hexan-6-yl)propyl)benzamide] |
| < 200 | CCC(NC(=O)c1ccc(Cl)cc1)[C@H]1[C@@H]2C[C@@H](n3ncc(=O)c4ccccc43)C[C@@H]21 (stereo partly drawn) [Compound 47, 4-chloro-N-(1-((1R,3s,5S,6r)-3-(4-oxocinnolin-1(4H)-yl)bicyclo[3.1.0]hexan-6-yl)propyl)benzamide] |
| < 200 | CCC(NC(=O)c1ccc(Cl)cc1)[C@H]1[C@@H]2C[C@@H](n3ncc4cnccc43)C[C@@H]21 (stereo partly drawn) [Compound 51, N-(1-((1R,3s,5S,6r)-3-(1H-pyrazolo[4,3-c]pyridin-1-yl)bicyclo[3.1.0]hexan-6-yl)propyl)-4-chlorobenzamide] |
| < 200 | O=C(Cc1ccc(Cl)cc1)NC1[C@H]2C[C@H](Oc3ccnc4ccc(F)cc34)C[C@@H]12 (stereo partly drawn) [Compound 7, 2-(4-chlorophenyl)-N-((1R,3s,5S,6r)-3-((6-fluoroquinolin-4-yl)oxy)bicyclo[3.1.0]hexan-6-yl)acetamide] |
